The results in this text go back to patent US7696129B2, “Substituted aromatic amide derivative, intermediate thereof, agrohorticultural insecticide containing thereof and method for the use thereof” (Nihon Nohyaku Co., Ltd., priority 2001, dated 2010).

Type in all cases: in vivo
Data set [1] deals with Smaller Tea Tortrix (Adxophyes sp.). The data set is described as follows: Test Example 3: insecticidal effect on smaller tea tortrix, tea leaf immersion. The following applies: 50 ppm, tea leaves immersed about 30 seconds, larvae, 25° C., humidity 70%, eight days after the inoculation. The protocol:
Insecticidal Effect on Smaller Tea Tortrix (Adxophyes sp.)
Tea leaves were immersed for about 30 seconds in a liquid chemical prepared by diluting a preparation containing each compound listed in Tables 1 to 3 as an active ingredient to adjust the concentration to 50 ppm. After air-dryness, the tea leaves were placed in a plastic Petri dish with a diameter of 9 cm and inoculated with larvae of smaller tea tortrix, after which the dish was allowed to stand in a room thermostatted at 25° C. and having a humidity of 70%. Eight days after the inoculation, the dead and alive were counted and the insecticidal effect was judged according to the criterion shown in Test Example 1. The test was carried out with triplicate groups of 10 insects.

For data set [2], the system named is Diamond Back Moth (Plutella xylostella). The data set is described as follows: Test Example 1: insecticidal effect on diamond back moth, immersion of Chinese cabbage seedling with eggs. The note with it: 50 ppm, seedling with eggs immersed about 30 seconds, 25° C., six days after the immersion. The text has this:
Insecticidal Effect on Diamond Back Moth (Plutella xylostella)
Adult diamond back moths were released and allowed to oviposit on a Chinese cabbage seedling. Two days after the release, the seedling having the eggs deposited thereon was immersed for about 30 seconds in a liquid chemical prepared by diluting a preparation containing each compound listed in Tables 4 to 9 as an active ingredient to adjust the concentration to 50 ppm. After air-dryness, it was allowed to stand in a room thermostatted at 25° C. Six days after the immersion, the hatched insects were counted. The mortality was calculated according to the following equation and the insecticidal effect was judged according to the criterion shown below. The test was carried out with triplicate groups of 10 insects.

In data set [3] the test system is Common Cutworm (Spodoptera litura). Description: Test Example 2: insecticidal effect on common cutworm, cabbage leaf immersion. The note with it: 50 ppm, cabbage leaf immersed about 30 seconds, second-instar larvae, 25° C., eight days after the inoculation. The text has this: Insecticidal Effect on Common Cutworm (Spodoptera litura)
A piece of cabbage leaf (cultivar; Shikidori) was immersed for about 30 seconds in a liquid chemical prepared by diluting a preparation containing each compound listed in Tables 4 to 9 as an active ingredient to adjust the concentration to 50 ppm. After air-dryness, it was placed in a plastic Petri dish with a diameter of 9 cm and inoculated with second-instar larvae of common cutworm, after which the dish was closed and then allowed to stand in a room thermostatted at 25° C. Eight days after the inoculation, the dead and alive were counted. The mortality was calculated according to the following equation and the insecticidal effect was judged according to the criterion shown in Test Example 1. The test was carried out with triplicate groups of 10 insects.

Turning to `Cc1cc(C(C(F)(F)F)C(F)(F)F)ccc1NC(=O)c1cccc(I)c1C(=O)NC(C)COC(=O)N(C)Cc1ccccc1` (stereo not drawn) [5-31], the “Test Example 3 (insecticidal effect, mortality criterion)” value in data set [1] is reported as “A (Mortality 100%)”. The “Test Example 1 (insecticidal effect, mortality criterion)” value in data set [2] is given as “A (Mortality 100%)”. The “Test Example 2 (insecticidal effect, mortality criterion)” value in data set [3] is reported as “A (Mortality 100%)”.
Consider `CCNC(=O)OCC(C)NC(=O)c1c(I)cccc1C(=O)Nc1ccc(C(C(F)(F)F)C(F)(F)F)cc1C` (stereo not drawn) [5-32], for which the “Test Example 3 (insecticidal effect, mortality criterion)” value in data set [1] is listed as “A (Mortality 100%)”. Further, the “Test Example 1 (insecticidal effect, mortality criterion)” value in data set [2] was “A (Mortality 100%)”. Besides, the “Test Example 2 (insecticidal effect, mortality criterion)” value in data set [3] is listed as “A (Mortality 100%)”.
As to `Cc1cc(C(C(F)(F)F)C(F)(F)F)ccc1NC(=O)c1cccc(I)c1C(=O)NC(C)COC(=O)NCc1ccccc1` (stereo not drawn) [5-33], the “Test Example 3 (insecticidal effect, mortality criterion)” value in data set [1] is listed as “A (Mortality 100%)”. In addition, the “Test Example 1 (insecticidal effect, mortality criterion)” value in data set [2] is reported as “A (Mortality 100%)”. In data set [3], the “Test Example 2 (insecticidal effect, mortality criterion)” value is on record as “A (Mortality 100%)”.
For the compound `Cc1ccccc1CNC(=O)OCC(C)NC(=O)c1c(I)cccc1C(=O)Nc1ccc(C(C(F)(F)F)C(F)(F)F)cc1C` (stereo not drawn) [5-34], in data set [1], the “Test Example 3 (insecticidal effect, mortality criterion)” value was “A (Mortality 100%)”. The “Test Example 1 (insecticidal effect, mortality criterion)” value in data set [2] was “A (Mortality 100%)”. Also, the “Test Example 2 (insecticidal effect, mortality criterion)” value in data set [3] is given as “A (Mortality 100%)”.
With `Cc1cc(C(C(F)(F)F)C(F)(F)F)ccc1NC(=O)c1cccc(I)c1C(=O)NC(C)COC(=O)NCc1ccc(C(F)(F)F)cc1` (stereo not drawn) [5-35], the “Test Example 3 (insecticidal effect, mortality criterion)” value in data set [1] is on record as “A (Mortality 100%)”. For the same compound, the “Test Example 1 (insecticidal effect, mortality criterion)” value in data set [2] is recorded as “A (Mortality 100%)”. For the same compound, the “Test Example 2 (insecticidal effect, mortality criterion)” value in data set [3] was “A (Mortality 100%)”.
As for `Cc1ccc(CNC(=O)OCC(C)NC(=O)c2c(I)cccc2C(=O)Nc2ccc(C(C(F)(F)F)C(F)(F)F)cc2C)cc1` (stereo not drawn) [5-36], in data set [1], the “Test Example 3 (insecticidal effect, mortality criterion)” value is “A (Mortality 100%)”. Moreover, the “Test Example 1 (insecticidal effect, mortality criterion)” value in data set [2] is on record as “A (Mortality 100%)”. In data set [3], the “Test Example 2 (insecticidal effect, mortality criterion)” value is given as “E (Mortality 49% or less)”.
`Cc1cc(C(C(F)(F)F)C(F)(F)F)ccc1NC(=O)c1cccc(I)c1C(=O)NC(C)COC(=O)NCc1ccc(Cl)cc1` (stereo not drawn) [5-37]: the “Test Example 3 (insecticidal effect, mortality criterion)” value in data set [1] is “A (Mortality 100%)”. The “Test Example 1 (insecticidal effect, mortality criterion)” value in data set [2] is recorded as “A (Mortality 100%)”. In addition, the “Test Example 2 (insecticidal effect, mortality criterion)” value in data set [3] was “A (Mortality 100%)”.
With `COc1ccc(CNC(=O)OCC(C)NC(=O)c2c(I)cccc2C(=O)Nc2ccc(C(C(F)(F)F)C(F)(F)F)cc2C)cc1` (stereo not drawn) [5-38], the “Test Example 3 (insecticidal effect, mortality criterion)” value in data set [1] is on record as “A (Mortality 100%)”. Moreover, the “Test Example 1 (insecticidal effect, mortality criterion)” value in data set [2] is “A (Mortality 100%)”. Also, the “Test Example 2 (insecticidal effect, mortality criterion)” value in data set [3] was “A (Mortality 100%)”.
On to `CSCC(C)NC(=O)c1c(I)cccc1C(=O)Nc1ccc(C(C(F)(F)F)C(F)(F)F)cc1C` (stereo not drawn) [5-39], for which, in data set [1], the “Test Example 3 (insecticidal effect, mortality criterion)” value is “A (Mortality 100%)”. Moreover, in data set [2], the “Test Example 1 (insecticidal effect, mortality criterion)” value is “A (Mortality 100%)”. In addition, the “Test Example 2 (insecticidal effect, mortality criterion)” value in data set [3] is “A (Mortality 100%)”.
Take `CC(=O)NCC(C)(C)NC(=O)c1c(I)cccc1C(=O)Nc1ccc(C(C(F)(F)F)C(F)(F)F)cc1C` [5-40]: in data set [1], the “Test Example 3 (insecticidal effect, mortality criterion)” value is on record as “A (Mortality 100%)”. Moreover, the “Test Example 1 (insecticidal effect, mortality criterion)” value in data set [2] is “A (Mortality 100%)”. For the same compound, in data set [3], the “Test Example 2 (insecticidal effect, mortality criterion)” value is on record as “A (Mortality 100%)”.
Take `CSCC(C)(C)NC(=O)c1c(C(=O)Nc2ccc(C(C(F)(F)F)C(F)(F)F)cc2C)cccc1C(F)(F)F` [5-41]: the “Test Example 3 (insecticidal effect, mortality criterion)” value in data set [1] was “A (Mortality 100%)”. For the same compound, the “Test Example 1 (insecticidal effect, mortality criterion)” value in data set [2] is on record as “A (Mortality 100%)”. The “Test Example 2 (insecticidal effect, mortality criterion)” value in data set [3] was “A (Mortality 100%)”.
As to `Cc1cc(C(C(F)(F)F)C(F)(F)F)ccc1NC(=O)c1cccc(C(F)(F)F)c1C(=O)NC(C)(C)C[S+](C)[O-]` (stereo not drawn) [5-42], in data set [1], the “Test Example 3 (insecticidal effect, mortality criterion)” value was “A (Mortality 100%)”. The “Test Example 1 (insecticidal effect, mortality criterion)” value in data set [2] was “A (Mortality 100%)”. Besides, the “Test Example 2 (insecticidal effect, mortality criterion)” value in data set [3] is “A (Mortality 100%)”.
`Cc1cc(C(C(F)(F)F)C(F)(F)F)ccc1NC(=O)c1cccc(C(F)(F)F)c1C(=O)NC(C)(C)CS(C)(=O)=O` [5-43]: the “Test Example 3 (insecticidal effect, mortality criterion)” value in data set [1] is on record as “A (Mortality 100%)”. Further, the “Test Example 1 (insecticidal effect, mortality criterion)” value in data set [2] is “A (Mortality 100%)”. Moreover, in data set [3], the “Test Example 2 (insecticidal effect, mortality criterion)” value is on record as “A (Mortality 100%)”.
Regarding `CCN(CC)C(=O)OCC(C)NC(=O)c1c(C(=O)Nc2ccc(C(C(F)(F)F)C(F)(F)F)cc2C)cccc1C(F)(F)F` (stereo not drawn) [5-44], the “Test Example 3 (insecticidal effect, mortality criterion)” value in data set [1] was “A (Mortality 100%)”. Further, the “Test Example 1 (insecticidal effect, mortality criterion)” value in data set [2] is “A (Mortality 100%)”. The “Test Example 2 (insecticidal effect, mortality criterion)” value in data set [3] is on record as “A (Mortality 100%)”.
On to `CSCC(C)(C)NC(=O)c1c(C(=O)Nc2ccc(C(C(F)(F)F)C(F)(F)F)cc2C)ccc(Cl)c1Cl` [5-45], for which the “Test Example 3 (insecticidal effect, mortality criterion)” value in data set [1] is on record as “A (Mortality 100%)”. Moreover, the “Test Example 1 (insecticidal effect, mortality criterion)” value in data set [2] is listed as “A (Mortality 100%)”. In addition, the “Test Example 2 (insecticidal effect, mortality criterion)” value in data set [3] is reported as “A (Mortality 100%)”.
On to `CCc1cc(C(C(F)(F)F)C(F)(F)F)ccc1NC(=O)c1cccc(I)c1C(=O)NC(C)C` [5-46], for which the “Test Example 3 (insecticidal effect, mortality criterion)” value in data set [1] is “A (Mortality 100%)”. Moreover, the “Test Example 1 (insecticidal effect, mortality criterion)” value in data set [2] was “A (Mortality 100%)”. Also, the “Test Example 2 (insecticidal effect, mortality criterion)” value in data set [3] is “A (Mortality 100%)”.
As to `CCc1cc(C(C(F)(F)F)C(F)(F)F)ccc1NC(=O)c1cccc(I)c1C(=O)NC(C)(C)CSC` [5-47], the “Test Example 3 (insecticidal effect, mortality criterion)” value in data set [1] is listed as “A (Mortality 100%)”. The “Test Example 1 (insecticidal effect, mortality criterion)” value in data set [2] was “A (Mortality 100%)”. In data set [3], the “Test Example 2 (insecticidal effect, mortality criterion)” value is “A (Mortality 100%)”.
On to `CSCC(C)(C)NC(=O)c1c(I)cccc1C(=O)Nc1ccc(C(C(F)(F)F)C(F)(F)F)cc1C(C)(C)C` [5-48], for which the “Test Example 3 (insecticidal effect, mortality criterion)” value in data set [1] is “E (Mortality 49% or less)”. Moreover, the “Test Example 1 (insecticidal effect, mortality criterion)” value in data set [2] is given as “A (Mortality 100%)”. In data set [3], the “Test Example 2 (insecticidal effect, mortality criterion)” value is listed as “E (Mortality 49% or less)”.
For `C[S+]([O-])CC(C)(C)NC(=O)c1c(I)cccc1C(=O)Nc1ccc(C(C(F)(F)F)C(F)(F)F)cc1C(C)(C)C` (stereo not drawn) [5-49], in data set [1], the “Test Example 3 (insecticidal effect, mortality criterion)” value is “E (Mortality 49% or less)”. Further, the “Test Example 1 (insecticidal effect, mortality criterion)” value in data set [2] was “A (Mortality 100%)”. In addition, the “Test Example 2 (insecticidal effect, mortality criterion)” value in data set [3] is on record as “E (Mortality 49% or less)”.
On to `CC(C)NC(=O)c1c(I)cccc1C(=O)Nc1ccc(C(C(F)(F)F)C(F)(F)F)cc1F` [5-50], for which, in data set [1], the “Test Example 3 (insecticidal effect, mortality criterion)” value is given as “A (Mortality 100%)”. In data set [2], the “Test Example 1 (insecticidal effect, mortality criterion)” value is “A (Mortality 100%)”. Also, the “Test Example 2 (insecticidal effect, mortality criterion)” value in data set [3] is listed as “A (Mortality 100%)”.
Turning to `CC(C)NC(=O)c1c(I)cccc1C(=O)Nc1ccc(C(C(F)(F)F)C(F)(F)F)cc1Cl` [5-51], the “Test Example 3 (insecticidal effect, mortality criterion)” value in data set [1] is given as “A (Mortality 100%)”. In addition, the “Test Example 1 (insecticidal effect, mortality criterion)” value in data set [2] is reported as “A (Mortality 100%)”. For the same compound, the “Test Example 2 (insecticidal effect, mortality criterion)” value in data set [3] is listed as “A (Mortality 100%)”.
